Results from patent publication US5326882A, “Chemiluminescent 3-(substituted Adamant-2'-Ylidene) 1,2-dioxetanes” (Tropix, Inc., priority 1992, dated 1994).

Legend:
Format in all cases: biochemical
[1] = target: T1, alkaline phosphatase (Bos taurus, UniProt P19111); assay: Half-time to plateau at low alkaline phosphatase concentration (Example XLI); conditions: 0.4 mM dioxetane at pH 10.0; 31.5° C.; 2.53 × 10^-13 M alkaline phosphatase; listed as HO-AMPPD-B
[2] = target: T1, alkaline phosphatase; assay: Chemiluminescent signal and signal:background with enhancer polymers (Example XVII)
Method: Four sets of three tubes each, each tube in each set containing 450 μl of a 0.4 mM aqueous solution of one of the four 1,2-dioxetanes being compared in 0.1M diethanolamine containing 1 mM magnesium chloride, 0.02% sodium azide and 0.1% of the enhancer polymer, pH 10.0 (substrate buffer) were prepared and the background signal from each tube measured using a Berthold LB 952T luminometer (Berthold Instruments; Wildbad, Federal Republic of Germany).
Next, 50 μl of an aqueous solution, 2.83×10^-12 M of alkaline phosphatase in 0.1M diethanolamine containing 1 mM magnesium chloride, 0.02% sodium azide, pH 10.0, (final enzyme concentration 2.83×10^-13 M) was added to each tube and the chemiluminescent signals were measured in the luminometer at 5 and 20 minutes. The intensity of the chemiluminescent signals and the signal: background ratios obtained for each of the four 1,2-dioxetanes in the presence of the enhancer polymers are shown in Table III below.
The enhancer polymers used, and the symbols for such polymers used in Table III, were the following: […]

[3] = target: T2, alkaline phosphatase (calf intestine; Biozyme) (Bos taurus, UniProt P19111); assay: Total dephosphorylation, chemiluminescence decay (Example XIII); conditions: 30° C., carbonate/bicarbonate buffer, listed as OH-Adamant-2'-ylidene (B isomer)
T2 construct: purchased Biozyme; host or cells: calf intestine
T2 sequence (P19111 20-506 limits assumed): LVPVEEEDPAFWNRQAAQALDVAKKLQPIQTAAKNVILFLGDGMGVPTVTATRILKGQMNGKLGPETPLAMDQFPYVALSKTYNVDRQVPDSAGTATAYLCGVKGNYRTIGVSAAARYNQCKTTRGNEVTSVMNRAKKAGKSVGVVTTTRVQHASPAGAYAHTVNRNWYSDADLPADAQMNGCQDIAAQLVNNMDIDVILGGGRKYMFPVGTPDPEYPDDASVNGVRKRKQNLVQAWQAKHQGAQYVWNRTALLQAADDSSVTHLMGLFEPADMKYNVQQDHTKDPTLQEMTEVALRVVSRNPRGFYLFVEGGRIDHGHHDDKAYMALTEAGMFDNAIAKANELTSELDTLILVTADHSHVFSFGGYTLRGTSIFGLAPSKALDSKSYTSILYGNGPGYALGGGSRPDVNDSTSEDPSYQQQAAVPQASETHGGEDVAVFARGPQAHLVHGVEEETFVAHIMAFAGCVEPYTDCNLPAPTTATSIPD
Method: A comparison of the total luminescence emission from AMPPD and from the corresponding 1,2-dioxetanes whose adamant-2'-ylidene groups are monosubstituted with hydroxy (A and B isomers), chloro and bromo groups was made by carrying out total dephosphorylation experiments on each of these compounds.
An aqueous solution of the 1,2-dioxetane (4.0 mm) in 0.05M sodium carbonate/sodium bicarbonate containing 1 mM magnesium chloride was prepared and then equilibrated at 30° C. Ten μl of a 7.64×10M aqueous solution of alkaline phosphatase (calf intestine; Biozyme) was then added, and the chemiluminescence from the resulting solution was recorded using a Turner Model 20E luminometer (Turner Instruments; Sunnyvale, Calif.).
The rates of chemiluminescence decay for each of the five compounds in question, expressed in relative light units (RLU's) per minute, are given in the following table.

T1 sequence (P19111 20-506 limits assumed): as above

Question: With `COC1(c2cccc(OP(=O)(O)O)c2)OOC12C1CC3CC2CC(O)(C3)C1` (single isomer, unassigned) [B-OH-AMPPD, disodium 3-(4-methoxyspiro-[1,2-dioxetane-3,2'-(5'-hydroxy)tricyclo[3.3.1.1^3,7]decan]-4-yl)phenyl phosphate] as the compound, how does the “HALF-TIME TO PLATEAU (min.) AL LOW ALK PHOS CONCENTRATION” value [1] read?
Answer: 1.03 min

Question: What about the S/N ([2]; polymer BAEDM, 5 min) of the same compound?
Answer: 25.4

Question: What about the SIGNAL ([2]; polymer BAEDM, 5 min) of the same compound?
Answer: 4101.3

Question: And the S/N ([2]; polymer BAEDM, 20 min)?
Answer: 34.3

Question: And the SIGNAL ([2]; polymer BAEDM, 20 min)?
Answer: 5538.2

Question: What about the S/N ([2]; polymer BAEDM, time 0) of the same compound?
Answer: 1.0

Question: And the SIGNAL ([2]; polymer BAEDM, time 0 (background, before enzyme))?
Answer: 161.4

Question: And the S/N ([2]; polymer BZ, 5 min)?
Answer: 18.8

Question: And the SIGNAL ([2]; polymer BZ, 5 min)?
Answer: 2246.4

Question: What about the S/N ([2]; polymer BZ, 20 min) of the same compound?
Answer: 22.4

Question: And the SIGNAL ([2]; polymer BZ, 20 min)?
Answer: 2669.2

Question: What about the S/N ([2]; polymer BZ, time 0) of the same compound?
Answer: 1.0

Question: And the SIGNAL ([2]; polymer BZ, time 0 (background, before enzyme))?
Answer: 119.4

Question: And the S/N ([2]; polymer DAA TMQ, 5 min)?
Answer: 40.3

Question: And the SIGNAL ([2]; polymer DAA TMQ, 5 min)?
Answer: 5486.8

Question: What about the S/N ([2]; polymer DAA TMQ, 20 min) of the same compound?
Answer: 49.0

Question: And the SIGNAL ([2]; polymer DAA TMQ, 20 min)?
Answer: 6670.3

Question: What about the S/N ([2]; polymer DAA TMQ, time 0) of the same compound?
Answer: 1.0

Question: And the SIGNAL ([2]; polymer DAA TMQ, time 0 (background, before enzyme))?
Answer: 136.0

Question: What about the S/N ([2]; polymer DME(OH)B, 5 min) of the same compound?
Answer: 20.0

Question: What about the SIGNAL ([2]; polymer DME(OH)B, 5 min) of the same compound?
Answer: 2640.9

Question: What about the S/N ([2]; polymer DME(OH)B, 20 min) of the same compound?
Answer: 30.2

Question: And the SIGNAL ([2]; polymer DME(OH)B, 20 min)?
Answer: 3990.6

Question: And the S/N ([2]; polymer DME(OH)B, time 0)?
Answer: 1.0

Question: What about the SIGNAL ([2]; polymer DME(OH)B, time 0 (background, before enzyme)) of the same compound?
Answer: 132.1

Question: What about the S/N ([2]; polymer DMEB, 5 min) of the same compound?
Answer: 35.7

Question: What about the SIGNAL ([2]; polymer DMEB, 5 min) of the same compound?
Answer: 4451.6

Question: And the S/N ([2]; polymer DMEB, 20 min)?
Answer: 48.3

Question: And the SIGNAL ([2]; polymer DMEB, 20 min)?
Answer: 6023.9

Question: And the S/N ([2]; polymer DMEB, time 0)?
Answer: 1.0

Question: And the SIGNAL ([2]; polymer DMEB, time 0 (background, before enzyme))?
Answer: 124.6

Question: And the S/N ([2]; polymer DMQ TEQ, 5 min)?
Answer: 63.3

Question: And the SIGNAL ([2]; polymer DMQ TEQ, 5 min)?
Answer: 9213.8

Question: What about the S/N ([2]; polymer DMQ TEQ, 20 min) of the same compound?
Answer: 57.0

Question: What about the SIGNAL ([2]; polymer DMQ TEQ, 20 min) of the same compound?
Answer: 8288.0

Question: What about the S/N ([2]; polymer DMQ TEQ, time 0) of the same compound?
Answer: 1.0

Question: And the SIGNAL ([2]; polymer DMQ TEQ, time 0 (background, before enzyme))?
Answer: 145.5

Question: What about the S/N ([2]; polymer MPB, 5 min) of the same compound?
Answer: 71.5

Question: What about the SIGNAL ([2]; polymer MPB, 5 min) of the same compound?
Answer: 10021.3

Question: What about the S/N ([2]; polymer MPB, 20 min) of the same compound?
Answer: 78.0

Question: And the SIGNAL ([2]; polymer MPB, 20 min)?
Answer: 10939.0

Question: What about the S/N ([2]; polymer MPB, time 0) of the same compound?
Answer: 1.0

Question: What about the SIGNAL ([2]; polymer MPB, time 0 (background, before enzyme)) of the same compound?
Answer: 140.3

Question: And the S/N ([2]; polymer NONE, 5 min)?
Answer: 26.3

Question: What about the SIGNAL ([2]; polymer NONE, 5 min, enzyme 2.83×10^-13 M) of the same compound?
Answer: 3314.8

Question: And the S/N ([2]; polymer NONE, 20 min)?
Answer: 29.8

Question: And the SIGNAL ([2]; polymer NONE, 20 min, enzyme 2.83×10^-13 M)?
Answer: 3767.9

Question: What about the S/N ([2]; polymer NONE, time 0) of the same compound?
Answer: 1.0

Question: What about the SIGNAL ([2]; polymer NONE, time 0 (background, before enzyme)) of the same compound?
Answer: 126.3

Question: And the S/N ([2]; polymer S/TMQ(1:2), 5 min)?
Answer: 20.6

Question: And the SIGNAL ([2]; polymer S/TMQ(1:2), 5 min)?
Answer: 3305.1

Question: And the S/N ([2]; polymer S/TMQ(1:2), 20 min)?
Answer: 35.7

Question: What about the SIGNAL ([2]; polymer S/TMQ(1:2), 20 min) of the same compound?
Answer: 5722.3

Question: What about the S/N ([2]; polymer S/TMQ(1:2), time 0) of the same compound?
Answer: 1.0

Question: What about the SIGNAL ([2]; polymer S/TMQ(1:2), time 0 (background, before enzyme)) of the same compound?
Answer: 160.3

Question: And the S/N ([2]; polymer S/TMQ(1:4), 5 min)?
Answer: 35.6

Question: And the SIGNAL ([2]; polymer S/TMQ(1:4), 5 min)?
Answer: 4775.3

Question: And the S/N ([2]; polymer S/TMQ(1:4), 20 min)?
Answer: 53.1

Question: What about the SIGNAL ([2]; polymer S/TMQ(1:4), 20 min) of the same compound?
Answer: 7120.3

Question: And the S/N ([2]; polymer S/TMQ(1:4), time 0)?
Answer: 1.0

Question: What about the SIGNAL ([2]; polymer S/TMQ(1:4), time 0 (background, before enzyme)) of the same compound?
Answer: 134.0

Question: And the SIGNAL ([2]; polymer SAPPHIRE (BDMQ), time 0 (background, before enzyme))?
Answer: 138.8

Question: And the S/N ([2]; polymer SAPPHIRE, 5 min)?
Answer: 78.6

Question: What about the SIGNAL ([2]; polymer SAPPHIRE, 5 min) of the same compound?
Answer: 10908.4

Question: What about the S/N ([2]; polymer SAPPHIRE, 20 min) of the same compound?
Answer: 105.3

Question: And the SIGNAL ([2]; polymer SAPPHIRE, 20 min)?
Answer: 14625.4

Question: And the S/N ([2]; polymer SAPPHIRE, time 0)?
Answer: 1.0

Question: What about the S/N ([2]; polymer TBQ, 5 min) of the same compound?
Answer: 97.6

Question: And the SIGNAL ([2]; polymer TBQ, 5 min)?
Answer: 15508.5

Question: And the S/N ([2]; polymer TBQ, 20 min)?
Answer: 131.1

Question: And the SIGNAL ([2]; polymer TBQ, 20 min)?
Answer: 20830.8

Question: What about the S/N ([2]; polymer TBQ, time 0) of the same compound?
Answer: 1.0

Question: What about the SIGNAL ([2]; polymer TBQ, time 0 (background, before enzyme)) of the same compound?
Answer: 158.9

Question: And the S/N ([2]; polymer TEQ, 5 min)?
Answer: 61.8

Question: What about the SIGNAL ([2]; polymer TEQ, 5 min) of the same compound?
Answer: 8806.2

Question: And the S/N ([2]; polymer TEQ, 20 min)?
Answer: 81.1

Question: What about the SIGNAL ([2]; polymer TEQ, 20 min) of the same compound?
Answer: 11563.4

Question: What about the S/N ([2]; polymer TEQ, time 0) of the same compound?
Answer: 1.0

Question: And the SIGNAL ([2]; polymer TEQ, time 0 (background, before enzyme))?
Answer: 142.6

Question: And the S/N ([2]; polymer TMQ, 5 min)?
Answer: 49.8

Question: And the SIGNAL ([2]; polymer TMQ, 5 min)?
Answer: 6258.9

Question: What about the S/N ([2]; polymer TMQ, 20 min) of the same compound?
Answer: 70.5

Question: What about the SIGNAL ([2]; polymer TMQ, 20 min) of the same compound?
Answer: 8857.8

Question: And the S/N ([2]; polymer TMQ, time 0)?
Answer: 1.0

Question: What about the SIGNAL ([2]; polymer TMQ, time 0 (background, before enzyme)) of the same compound?
Answer: 125.7

Question: What about the “Total Decay Time” value [3] of the same compound?
Answer: 10 min

Question: And the “Decay Rate I” value ([3]; RLU's per minute)?
Answer: 1.5 RLU's per minute
